How the values were obtained:
[1] = tested on: mice with chronic pressure overload (ascending aortic constriction); assay: Mouse model of chronic pressure overload (ascending aortic constriction), myocardial remodeling; format: in vivo
Source text: This remodeling effect was manifested by lower left ventricular dimensions, lower ventricular wall thicknesses, and greater fractional shortening values compared to untreated controls. […] The study consisted of two ribose treated groups (high and low dose) with the high dose treated group responding better than the low dose group compared to untreated controls. The high dose provided D-ribose exposures that were 4-fold greater than observed in the low dose group providing evidence of a dose effect. The once daily, subcutaneous administration of D-ribose was intended to mimic once daily oral dosing in humans. […] Mice were subjected to ascending aortic constriction (AAC) leading to LV hypertrophy followed by severe LV systolic dysfunction and associated heart failure. In this situation, mitochondrial ATP synthesis is reduced and ROS production is increased in association with advancing heart failure. Reduced ATP levels can contribute to progressive loss of cardiac function from increasing energy deficit. Increased ROS can result in oxidation of critical enzymes and a diminished reducing environment, leading to apoptosis and fibrosis, which are aspects of cardiac remodeling. Mice were divided into four groups; Sham controls (same thoracic surgery with no constriction), AAC untreated, and AAC D-ribose treated (high and low dose). D-ribose for injection (5% to 50% weight/volume) was administered at a dose of 25 to 500 mg/kg body weight by subcutaneous or intraperitoneal injection one to four times daily. After initiation of D-ribose treatment, animals in all groups were monitored for progressive heart failure using echocardiography. LV volumes, fractional shortening, and LV wall thicknesses were measured at 10 and 15 weeks. When LV dilation and fractional shortening were sufficiently advanced, animals were subjected to physical function testing using a motorized treadmill. Animals were allowed to recover for one week and their hearts were harvested and evaluated histologically for myocyte hypertrophy and fibrosis.

[2] = Safety, tolerability and pharmacokinetics of multiple oral doses of D-ribose solution in subjects with stable chronic heart failure; format: in vivo, human
Procedure: Although a morning oral dose of D-ribose (overnight fasting) produced significant blood plasma levels, the mid-day and evening doses produced diminished blood levels similar to that observed in healthy subjects given food immediately prior to dosing, even though D-ribose administration to subjects with stable congestive heart failure occurred over 2 hours after their previous meal.
The safety, tolerability, pharmacokinetics and pharmacodynamics of multiple oral doses of D-ribose solution was studied in 14 subjects with stable, chronic heart failure. It is well known that bolus oral D-ribose can induce a dose-dependent transient hypoglycemia that is preceeded by a transient spike in insulin levels. This can result in symptomatic hypoglycemia in subjects whose blood glucose levels fall sufficiently far. This transient hypoglycemia is the dose limiting side effect of D-ribose treatment, although it is readily overcome by drinking a glass of fruit juice. For this reason, subjects were initially administered a 10 g dose, fasted, followed 5 hours later by a 5 g dose at least 2.5 hours after the end of the previous meal. Subjects that tolerated the 10 g dose completed the remainder of the study at the 10 g dose. […] All subjects tolerated the 10 g dose, so the remainder of the study was conducted using the 10 g dose only. For the next two days, subjects were administered 10 g of D-ribose solution three times daily at 5 hour intervals beginning with a fasted morning dose around 7 a.m. Meals were served two hours after each dose such that the second and third daily doses were administered approximately 2.5 hours after completion of the previous meal. On the third day of dosing, subjects were administered a single dose of chewable tablets containing 16 g of glucose at 0, 30, and 60 minutes post-dose according to a predefined randomization schedule. The purpose of this was to determine whether glucose could attenuate any symptomatic hypoglycemia (if observed), or if it would impact the rate or extent of D-ribose absorption into the blood. Blood levels of D-ribose and insulin were determined at pre-defined time points throughout the study. Blood glucose levels were monitored continuously throughout the study. Four major outcomes emerged from this study. […] This phenomenon was not observed in normal subjects and appears unique to heart failure patients. Lastly, supplemental glucose administered between 0 and 60 minutes post-dose had no effect on D-ribose absorption into the blood.

[3] = tested on: dogs with pacing-induced heart failure; assay: Canine model of heart failure induced by chronic cardiac pacing, longevity; format: in vivo
Source text: It has been shown that administration of D-ribose can improve cardiac function in animal models of heart failure. […] Animals treated with once daily, oral D-ribose at a weight equivalent dose of 10 g in a 70 kg human lived 40% longer than placebo animals. It has been hypothesized that D-ribose helps retain cardiac function by maintaining the adenylate pool in cardiomyocytes that are overworked due to underlying heart disease. Supplemental D-ribose can bypass the cell's need to synthesize D-ribose via the pentose phosphate shunt, which can be a rate limiting step to synthesis of ATP in cardiomyocytes by either the salvage or de novo pathways. It has been shown in several studies that D-ribose can enhance the rate of recovery of ATP and other constituents of the adenylate pool in the hearts of animals subjected to hypoxic stress. However, there may be additional benefits to D-ribose treatment in subjects suffering from diminished mitochondrial function in disease states such as coronary artery disease, ischemic heart disease, dilated cardiomyopathy, or other conditions leading to heart failure.
Dogs were surgically implanted with a cardiac pacing device used to induce heart failure through chronic cardiac pacing. In addition, an aortic catheter, coronary sinus catheter (for blood sampling), left ventricular catheter and pressure transducer, left ventricular piezoelectric crystals, and a transonic flow probe in the left circumflex coronary artery were implanted to measure a variety of hemodynamic parameters and to sample coronary venous blood. Subsequent to recovery from surgery, animals were paced for 3 weeks at a rate of 210 beats per minute (bpm) followed by an increased rate of 350 bpm which continued until the animals were deemed to be terminal. Hemodynamic and metabolic measurements were made on a scheduled basis throughout the pacing period. Dogs were treated with 150 mg/kg D-ribose solution orally either once daily (fasted) or three times daily. Placebo dogs were given an equivalent volume of water. D-ribose treatment started 10 days following the start of pacing and continued until the animal was deemed to be terminal. […] However, one significant difference was how long the D-ribose treated animals lived. Dogs treated once daily lived an average of 38.3 days versus 27.3 days for placebo animals (p<0.03). Furthermore, although the group of dogs treated three times daily (tid) with D-ribose consisted of fewer animals than the group of dogs treated once daily, the tid group lived on average 30.5 days, which was not statistically different than placebo animals (p>0.20). […]

[4] = tested on: patients with NYHA Class II to IV heart failure; assay: Functional improvement in patients with NYHA Class II to IV heart failure taking D-ribose; format: in vivo, human; conditions: 10 to 50 g oral once daily fasted
Procedure: (§1) Oral D-ribose powder for solution is administered at a dose of 10 to 50 grams per dose, once daily, fasted (e.g., 3 hours, 4, hours, 5 hours, 6 hours, 7 hours, 8 hours, 9 hours, 10 hours, 11 hours, 12 hours, or more). D-ribose powder for solution is dissolved in 50 to 250 mL of water or clear beverage and is consumed within a 15 to 60 minute period. It is preferred that D-ribose be administered to patients that are fasted. Patients are administered D-ribose for a period of at least two weeks, but possibly for the remainder of their lives.

[5] = tested on: patients with NYHA Class II to IV heart failure; assay: Remodeling effects in patients with NYHA Class II to IV heart failure taking D-ribose; format: in vivo, human; conditions: 10 to 50 g oral once daily fasted, within 3 months to one year
Procedure: as §1, with “and” for “and is”, “administered” for “administered to patients that are”, “weeks” for “weeks,”, “lives. Within a period of 3 months to one year, in at least some embodiments, patients taking D-ribose may have a lower Left Ventricular Systolic Volume Index ([…]), a lower Left Ventricular Diastolic Volume Index ([…]), higher Ejection Fractions (EF), higher dP/dtmax values, lower dP/dtmin values, and/or higher cardiac output than patients taking placebo.” for “lives.”

[6] = tested on: patients with acute decompensated heart failure; assay: Dyspnea and/or edema in patients hospitalized for acutely decompensated heart failure; format: in vivo, human; conditions: 10 to 50 g oral once daily fasted
Procedure: Patients admitted to the hospital for acute decompensated heart failure may be given oral D-ribose powder for solution at a dose of 10 to 50 grams per dose, once daily, fasted (e.g., 3 hours, 4, hours, 5 hours, 6 hours, 7 hours, 8 hours, 9 hours, 10 hours, 11 hours, 12 hours, or more). D-ribose powder for solution is dissolved in 50 to 250 mL (preferably 50 mL in this case) of water or clear beverage and consumed within a 15 to 60 minute period. It is preferred that D-ribose be administered to patients that are fasted. Patients are treated until symptoms of dyspnea and fluid overload have stabilized.

[7] = healthy subjects, oral; cited from earlier work
[8] = high dose AAC D-ribose treated vs AAC control mice, p<0.05
[9] = low dose AAC D-ribose treated vs AAC controls, not statistically significant

## O=C[C@H](O)[C@H](O)[C@H](O)CO [D-ribose]
[1]; D-ribose treated animals vs untreated controls
  heart weights: heart weights were greater in untreated controls than D-ribose treated animals
[1]; [8]
  fibrosis by differential staining (tissue sections): significantly less fibrosis
  myocyte diameters (tissue sections): significantly smaller
[1]; high dose AAC D-ribose treated vs AAC controls, p<0.01
  left ventricular fractional shortening (echocardiography): significantly lower degree of remodeling
[1]; high dose AAC D-ribose treated vs AAC controls, p<0.01 at systole, p=0.01 at diastole
  left ventricular dimensions (echocardiography): significantly lower degree of remodeling
[1]; high dose AAC D-ribose treated vs AAC controls, p<0.03
  total wall thickness (echocardiography): significantly lower degree of remodeling
[1]; [9]
  left ventricular dimensions (echocardiography): numerical improvements
  left ventricular fractional shortening (echocardiography): numerical improvements
[1]; low dose AAC D-ribose treated vs AAC controls, p<0.04
  total wall thickness (echocardiography): statistically significant
[1]; mice, once daily subcutaneous dose
  D-ribose exposure, high dose relative to low dose group: 4 fold
[2]; 10 g bolus oral dose, even with fasted doses
  episodes of symptomatic hypoglycemia: no episodes of symptomatic hypoglycemia
[2]; 10 g bolus oral dose, subjects with stable chronic heart failure
  tolerability: well tolerated
[2]; 16 g glucose chewable tablets at 0, 30 or 60 minutes post-dose
  effect of supplemental glucose on D-ribose absorption into the blood: no effect
[2]; oral 10 g mid-day and evening doses
  share of non-fasted doses with blood levels less than 15% of a 10 g fasted dose: 30%
[2]; oral 10 g, approximately 2.5 hours after previous meal
  blood levels from mid-day and evening doses relative to 10 g fasted morning dose: roughly 40%
[2]; oral, 5 g mid-day dose at least 2.5 hours after previous meal vs 10 g fasted morning dose
  mean blood level exposure of mid-day 5 g dose, lower than 10 g fasted morning dose: 30 fold
[3]; 150 mg/kg oral D-ribose treated dogs
  hemodynamics or other metabolic measures vs placebo: no significant differences
[3]; 150 mg/kg oral once daily (fasted), p<0.03 vs placebo (27.3 days)
  average survival time: 38.3 days
[3]; 150 mg/kg oral three times daily (tid), p>0.20 vs placebo, not statistically different
  average survival time: 30.5 days
[3]; once daily oral dose equivalent to 10 g in a 70 kg human
  longer life than placebo animals: 40%
[4]
  sub-maximal (Six Minute Walk Test) or maximal (CPX) exercise capacity: may exhibit improved sub-maximal exercise capacity
[4]; within 3 months to one year, vs patients not taking D-ribose
  assessments of fatigue, dyspnea, edema, Global Clinical Status and other outcomes: may show improved assessments
[5]
  LVESVI, LVEDVI, EF, dP/dtmax, dP/dtmin, cardiac output vs placebo: may have a lower Left Ventricular Systolic Volume Index (LVESVI)
[6]
  symptoms of dyspnea vs patients taking diuretics only: may exhibit reduced symptoms of dyspnea within a significantly shorter timeframe
[7]
  absorption relative to metabolism: absorbed faster than it is metabolized
  blood levels after administration immediately following meals vs after fasting: greatly reduced
  dose proportionality of blood levels: increase more than proportionally with increasing dose
